According to ChEMBL document CHEMBL1125691, “Escherichia coli mediated biosynthesis and in vitro anti-HIV activity of lipophilic 6-halo-2',3'-dideoxypurine nucleosides” (J Med Chem, 1991):

Assays:
[1] = tested on: ATH-8 cell line; experiment: Concentration required to inhibit the cytopathic effect of HIV-1 on ATH8 cells; assay type: functional, Human immunodeficiency virus 1; conditions: Homo sapiens, read-out: ED50 (the source's name)
[2] = tested on: ATH-8 cell line; experiment: Concentration required to suppress the growth of target ATH8 cells; assay type: functional; conditions: Homo sapiens, read-out: CD50 (the source's name)
[3] = (§1) ratio of CD50/ED50; assay type: functional
[4] = tested on: ATH-8 cell line; experiment: In Vitro evaluation for the anti-viral activity Drug concentrations required to inhibit the cytopathic effect of HIV-2 on ATH8 cells; assay type: functional; conditions: Homo sapiens, read-out: ED50 (the source's name)
[5] = Compound was evaluated for the partition coefficient measured for 1-octanol and 0.01 M potassium phosphate buffer (pH 7.0); assay type: physicochemical; conditions: octanol/water
[6] = tested on: ATH-8 cell line; experiment: as §1; assay type: functional
[7] = tested on: ATH-8 cell line; experiment: Ratio of CD50/ED50; assay type: functional
[8] = tested on: ATH-8 cell line; experiment: In vitro evaluation for the anti-viral activity by taking the drug concentrations required to suppress the growth of target ATH8 cells; assay type: functional; conditions: Homo sapiens, read-out: CD50 (the source's name)
[9] = tested on: ATH-8 cell line; experiment: In vitro evaluation for the anti-viral activity Drug concentrations required to inhibit the cytopathic effect of HIV-1on ATH8 cells; assay type: functional; conditions: Homo sapiens, read-out: ED50 (the source's name)

SMILES	EC50 [1]	CC50 [2]	other results
OC[C@@H]1CC[C@H](n2cnc3c(Cl)nc(Cl)nc32)O1	> 200 µM	36 µM	Ratio [3]: < 0.2
Nc1nc(Cl)c2ncn([C@H]3CC[C@@H](CO)O3)c2n1	5.5 µM	> 300 µM	EC50 [4]: 12.5 µM
O=c1[nH]cnc2c1ncn2[C@H]1CC[C@@H](CO)O1 [DIDANOSINE]	5.6 µM	> 900 µM	Partition coefficient [5]: 0.05; Ratio [6]: >161
Nc1nc2c(ncn2[C@H]2CC[C@@H](CO)O2)c(=O)[nH]1	3.5 µM	> 900 µM	Partition coefficient [5]: 0.08; Ratio [6]: >257
Nc1ncc2ncn([C@H]3CC[C@@H](CO)O3)c2n1	> 200 µM	> 200 µM	–
Nc1nc(F)c2ncn([C@H]3CC[C@@H](CO)O3)c2n1	2.4 µM	> 300 µM	EC50 [4]: 14.5 µM
Nc1nc(Br)c2ncn(C3CCC(CO)O3)c2n1 (configuration not stated)	6.9 µM	> 300 µM	–
O=c1[nH]c(=O)c2ncn([C@H]3CC[C@@H](CO)O3)c2[nH]1	> 200 µM	> 200 µM	–
Nc1nc(I)c2ncn(C3CCC(CO)O3)c2n1 (configuration not stated)	7.9 µM	210 µM	–
OC[C@@H]1CC[C@H](n2cnc3cncnc32)O1	> 200 µM	> 200 µM	–
Cc1cn([C@H]2C[C@H](N=[N+]=[N-])[C@@H](CO)O2)c(=O)[nH]c1=O [ZIDOVUDINE]	5 µM	> 20 µM	Ratio [7]: 4; Partition coefficient [5]: 1.12
OCC1CCC(n2cnc3c(I)ncnc32)O1 (configuration not stated)	46 µM	86 µM	–
OCC1CCC(n2cnc3c(Br)ncnc32)O1 (configuration not stated)	7.7 µM	96 µM	–
OCC1CCC(n2cnc3c(S)ncnc32)O1 (configuration not stated)	> 200 µM	150 µM	Ratio [6]: <0.8
OC[C@@H]1CC[C@H](n2cnc3c(F)ncnc32)O1	2.8 µM	190 µM	EC50 [4]: 16 µM
OC[C@@H]1CC[C@H](n2cnc3c(Cl)ncnc32)O1	6.9 µM	164 µM	EC50 [4]: 42 µM
Nc1nc(S)c2ncn(C3CCC(CO)O3)c2n1 (configuration not stated)	–	–	Ratio [7]: <0.1; CC50 [8]: 9 µM; EC50 [9]: > 200 µM
